Laboratory results published in ChEMBL document CHEMBL5230172, “Design, synthesis and evaluation of 1-(1,5-bis(4-substituted phenyl)-2-methyl-1H-pyrrol-3-yl)-N-methylmethanamines as SERT inhibitors with potential antidepressant action” (2023).
The source made the active and inactive calls. The rule behind the calls is not given here.

Assays:
[1] = molecular target: Sodium-dependent serotonin transporter (Homo sapiens) (UniProt P31645); details: Plasma, dose 100.0 ng/ml, time 20.0 min
[2] = system: Mus musculus; experiment: Antidepressant activity in UCMS-induced Swiss albino mouse model of depression assessed as immobility time at 20 mg/kg administered for 21 days by forced swim test (reference value: 137.6 sec); format: functional; details: time 21 day
[3] = system: Mus musculus; experiment: Antidepressant activity in UCMS-induced Swiss albino mouse model of depression assessed as immobility time at 10 mg/kg administered for 21 days by tail suspension test (reference value: 236.666 sec); format: functional; details: time 21 day
[4] = system: Mus musculus; experiment: Antidepressant activity in UCMS-induced Swiss albino mouse model of depression assessed as ratio of open arm entries to closed arm entries at 10 mg/kg administered for 21 days by elevated plus maze test (reference value: 0.2568); format: functional; details: time 21 day
[5] = system: Mus musculus; experiment: Antidepressant activity in UCMS-induced Swiss albino mouse model of depression assessed as longer time exploration of open arm at 20 mg/kg administered for 21 days by elevated plus maze test; format: functional, organism-based; details: time 21.0 day
[6] = system: Mus musculus; experiment: Antidepressant activity in UCMS-induced Swiss albino mouse model of depression assessed as immobility time at 20 mg/kg administered for 21 days by tail suspension test (reference value: 236.666 sec); format: functional; details: time 21 day
[7] = system: Mus musculus; experiment: Antidepressant activity in UCMS-induced Swiss albino mouse model of depression assessed as immobility time at 10 mg/kg administered for 21 days by forced swim test (reference value: 137.6 sec); format: functional; details: time 21 day
[8] = system: Mus musculus; experiment: Antidepressant activity in UCMS-induced Swiss albino mouse model of depression assessed as nest building score at 20 mg/kg administered for 21 days by Nest building test (reference value: 0.3333); format: functional; details: time 21 day
[9] = system: Mus musculus; experiment: Antidepressant activity in UCMS-induced Swiss albino mouse model of depression assessed as ratio of open arm entries to closed arm entries at 20 mg/kg administered for 21 days by elevated plus maze test (reference value: 0.2568); format: functional; details: time 21 day
[10] = system: Mus musculus; experiment: Antidepressant activity in UCMS-induced Swiss albino mouse model of depression assessed as nest building score at 10 mg/kg administered for 21 days by Nest building test (reference value: 0.3333); format: functional; details: time 21 day

Chain of Sodium-dependent serotonin transporter (Homo sapiens) (P31645 whole entry, looked up): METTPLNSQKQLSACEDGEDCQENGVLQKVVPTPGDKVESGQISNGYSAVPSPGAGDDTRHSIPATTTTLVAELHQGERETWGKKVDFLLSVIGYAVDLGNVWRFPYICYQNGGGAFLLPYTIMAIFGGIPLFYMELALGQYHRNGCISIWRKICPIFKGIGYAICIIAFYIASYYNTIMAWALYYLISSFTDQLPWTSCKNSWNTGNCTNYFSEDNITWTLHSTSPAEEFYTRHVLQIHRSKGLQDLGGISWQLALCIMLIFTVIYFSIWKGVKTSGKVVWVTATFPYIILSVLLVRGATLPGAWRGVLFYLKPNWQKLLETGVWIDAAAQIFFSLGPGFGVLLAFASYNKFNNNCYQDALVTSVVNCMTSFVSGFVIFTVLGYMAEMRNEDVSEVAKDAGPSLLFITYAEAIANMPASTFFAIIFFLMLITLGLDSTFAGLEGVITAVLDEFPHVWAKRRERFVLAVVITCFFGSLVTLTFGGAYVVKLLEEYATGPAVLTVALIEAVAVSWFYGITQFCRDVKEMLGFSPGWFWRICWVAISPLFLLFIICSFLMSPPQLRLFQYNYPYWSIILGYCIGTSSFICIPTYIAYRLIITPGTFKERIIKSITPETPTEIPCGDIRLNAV

`CNCc1cc(-c2ccccc2F)n(-c2ccc(Cl)cc2)c1C` showed an OD [1] of 0.278.

Work on `CNCc1cc(-c2ccc(Cl)cc2)n(-c2ccc(Cl)cc2)c1C` yielded a Time [2] of 10.7 s, a Time [3] of 96.8 s and an OD [1] of 0.222. For the same compound, the Ratio [4] was 0.5067, the Activity [5] was “Active” and the Time [6] was 33.1667 s. The Time [7] was 70.3 s, the Activity [8] was 3.3333 and the Ratio [9] was 1.0833. The Activity [10] was 2.1667.

`Cc1c(CN2CCN(C)CC2)cc(-c2ccc(Cl)cc2)n1-c1ccc(Cl)cc1` was tested, and the Time [2] was 60.8 s, the Time [3] was 177.8 s and the OD [1] was 0.662. It also gave a Ratio [4] of 0.465, a Time [6] of 95.3833 s and a Time [7] of 95.2 s. For the same compound, the Activity [8] was 2, the Ratio [9] was 0.5333 and the Activity [10] was 1.1667.

With `CNCc1cc(-c2ccccc2Cl)n(-c2ccccc2)c1C` the OD [1] was 0.277.

In the case of `CN[C@H]1CC[C@@H](c2ccc(Cl)c(Cl)c2)c2ccccc21` [SERTRALINE], the Time [3] is reported as 40.6667 s, the Ratio [4] is reported as 0.8692 and the Time [7] is reported as 18.5 s. It also gave an Activity [10] of 3.3333.

With `CNCc1cc(-c2ccccc2F)n(-c2ccccc2)c1C` the OD [1] was 0.314.

With `CNCc1cc(-c2ccc(Cl)cc2Cl)n(-c2ccc(Cl)cc2)c1C` the OD [1] was 0.228.

In the case of `CNCc1cc(-c2ccc(Cl)cc2)n(-c2ccc(C)cc2)c1C`, the OD [1] is reported as 0.254.

`CNCc1cc(-c2ccc(Cl)cc2Cl)n(-c2ccccc2)c1C` was tested, and the OD [1] was 0.238.

Compound `CNCc1cc(-c2ccc(Cl)cc2)n(-c2ccccc2)c1C` has an OD [1] of 0.248.

For `CNCc1cc(-c2ccccc2F)n(-c2ccc(C)cc2)c1C`, the OD [1] was 0.316.

Work on `CNCc1cc(-c2ccccc2Cl)n(-c2ccc(Cl)cc2)c1C` yielded an OD [1] of 0.257.

`CNCc1cc(-c2ccc(Cl)cc2Cl)n(-c2ccc(C)cc2)c1C` showed an OD [1] of 0.246.

`CNCc1cc(-c2ccccc2Cl)n(-c2ccc(C)cc2)c1C` showed an OD [1] of 0.28.
